Values joined by “and” are separate entries in the source; they are usually repeats but may differ in a detail not shown here. Identical values can stand only once.
How the values were obtained:
Format in all cases: cell-based, human
[1] = test system: HCT116 cells; assay: Colony-forming assay, HCT116; conditions: for number of colonies: HCT116, 120 h treatment at IC90 doses, about 250 cells cultured two weeks in fresh medium; for return to proliferation (colony formation): HCT116, IC90 doses, already after 24 h of incubation
Description: The ability of cells to return to proliferation after UAs treatment was measured by a colony-forming assay. After drug treatment, 250 HCT116 and H460 cells were harvested and seeded in a new 6-well plate containing fresh medium without the drug and incubated for two weeks. Untreated cells were used as controls. After two weeks, colonies were fixed with 80% ethanol, stained with crystal violet, counted, and photos were taken.

[2] = test system: H460 cells; assay: MTT cell growth inhibition assay, H460
Description: (§1) To assess cell viability, the MTT assay was used. HCT116, H460, CCD 841 CoN and MRC-5 cells (20,000/well and 50,000/well for cancer and normal cells, respectively) were seeded in 24-well plates, and the following UAs were added at concentrations up to 10 μM: C-2028, C-2041, C-2045 and C-2053. Stock solutions (10 mM) were prepared in sterile water, as well as dilutions, also in water. After 72 h, 3-(4, 5-dimethylthiazol-2-yl)-2,5-diphenyltetrazolium bromide (MTT; 800 μg/well) was added for 3 h, then the formazan crystals were dissolved in DMSO, and absorbance was read at 540 nm. Each point was conducted at least 4 times, and data are expressed relative to controls. The concentration of the drug required to inhibit cells growth by 50 (IC50), 80 (IC80) and 90% (IC90) compared to untreated control cells was determined from the curves plotting survival as a function of dose.

[3] = test system: cleaved PARP in HCT116 cells; assay: PARP cleavage flow cytometry, HCT116; conditions: HCT116, IC90 doses, up to 120 h
Description: PARP cleavage was determined using Alexa Fluor 647-conjugated anti-cleaved PARP antibody (BD Biosciences, San Diego, CA, USA) according to the manufacturer’s instructions. Briefly, HCT116 and H460 cells (1 × 10^6) were trypsinized, pelleted, washed twice with ice-cold PBS and fixed in Fixation Buffer for 20 min on ice. After fixation, cells were rinsed twice with Perm Wash Buffer, stained with Alexa Fluor 647-conjugated anti-cleaved PARP antibody for 30 min, rinsed with Perm Wash Buffer and analyzed by flow cytometry with FACS Accuri C6 (BD, San Jose, CA, USA).

[4] = test system: HCT116 cells; assay: MTT cell growth inhibition assay, HCT116; conditions: HCT116, 72 h
Description: as §1

[5] = test system: H460 cells; assay: Cell cycle analysis (PI, flow cytometry), H460; conditions: H460, IC90 doses
Description: After drug treatment, trypsinized and floating cells (2 × 10^6) were pooled, washed twice with ice-cold PBS and fixed in 70% (v/v) ethanol overnight at −20 °C. Cells were stained with propidium iodide (PI) (BD Biosciences, San Jose, CA, USA) and monitored by FACS Accuri C6 (BD Biosciences, San Jose, CA, USA).

[6] = test system: KRAS gene expression in H460 cells; assay: RT-PCR KRAS expression in H460; conditions: H460, IC90 doses, with time of incubation up to 120 h
Description: HCT116, H460, CCD 841 CoN and MRC-5 cells after treatment with UAs were collected, washed twice with ice-cold PBS and resuspended in […] of PBS. mRNA was isolated using High Pure RNA Isolation Kit according to the manufacturer’s instructions (Roche, Basel, Switzerland). Briefly, cells were lysed in lysis-binding buffer and transferred to a filter tube. Contaminating DNA was removed by 15 min incubation of the filter tube with DNase I solution. The filter tube was washed once with buffer I and twice with buffer II, and after centrifugation, total RNA was eluted using the elution buffer. RNA concentration was determined by NanoDrop One (Thermo Scientific); 1 µg of RNA was reverse transcribed using Transcriptor First Strand cDNA Synthesis Kit according to the manufacturer’s instructions (Roche) in 20 µL of reaction containing 1 µg of RNA, […] anchored-oligo(dT)18Primer, 8 mM MgCl2, 20 U of Protector RNase Inhibitor, deoxynucleotide mix (1 mM each) and 22 U of Transcriptor Reverse Transcriptase. The reverse transcription reaction was carried out for 30 min at 55 °C and stopped by heating to 85 °C for 5 min and placing on ice. The cDNA solution was stored at −20 °C until use. Real-time polymerase chain reaction (PCR) was performed on 2 µL of cDNA using 0.2 µM forward and reverse primers on LightCycler® 480 using LightCycler® 480 SYBR Green I Master according to manufacturer’s instructions (Roche). Primers were designed using BLAST website. Their efficiency was checked, and they were ordered from Genomed (Warsaw, Poland). The sequences of primers were as follows: MYC set 1 forward primer, […]; MYC set 1 reverse primer, […]; MYC set 2 forward primer, […]; MYC set 2 reverse primer, […]; KRAS forward primer, […]; KRAS reverse primer, […]; reference gene, GAPDH forward primer ACCCACTCCTCCACCTTTG; and GAPDH reverse primer, CTCTTGTGCTCTTGCTGGG. Cycling conditions were as follows: 1 cycle for 7 min at 95 °C (preincubation), 45 cycles of amplification: 10 s at 95 °C (denaturation), 20 s at 62 °C (annealing), 30 s at 72 °C (extension), 1 cycle for obtaining melting curve and 1 cycle for 10 s at 40 °C (cooling). The results were standardized to the reference gene GADPH. The relative expression level of MYC and KRAS was quantified using comparative method […]. The results were obtained from three independent experiments, each of which was analyzed at least twice.

[7] = test system: MRC-5 cells; assay: MTT cell growth inhibition assay, MRC-5; conditions: for IC50: MRC-5 normal cells; for IC90: MRC5, MRC-5 normal cells
Description: as §1

Row | IC50 ([2]; Homo sapiens, NCI-H460, 72 h) [nM] | IC90 ([2]; Homo sapiens, NCI-H460, 72 h) [nM] | IC50 ([4]; Homo sapiens, HCT-116, 72 h) [nM] | IC90 ([4]; Homo sapiens, HCT-116, 72 h) [nM] | SMILES | cells with cleaved PARP [3] | Poli (polyploid cells) ([5]; 24 h) [%] | cells in G1 ([5]; 24 h) [%] | cells in G2/M ([5]; 24 h) [%] | cells in S ([5]; 24 h) [%] | cells in Sub-G1 ([5]; 24 h) [%] | Poli (polyploid cells) ([5]; 72 h) [%] | cells in G1 ([5]; 72 h) [%] | cells in G2/M ([5]; 72 h) [%] | cells in S ([5]; 72 h) [%] | cells in Sub-G1 ([5]; 72 h) [%] | Poli (polyploid cells) ([5]; 120 h) [%] | cells in G2/M ([5]; 120 h) [%] | cells in S ([5]; 120 h) [%] | cells in Sub-G1 ([5]; 120 h) | relative amount of KRAS mRNA [6] | also measured
1 | ≤ 16 | ≤ 50 | ≤ 16 | ≤ 50 | CN(CCCNc1c2ccccc2nc2cccc([N+](=O)[O-])c12)CCCNc1ccc2ncn3c4ccccc4c(=O)c1c23 [Compound C-2028] | approximately 10% | 1.70 ± 0.42 | 32.92 ± 3.77 | 21.64 ± 4.23 | 32.74 ± 2.09 | 11.09 ± 3.80 | 2.11 ± 0.55 | 37.15 ± 4.13 | 19.21 ± 6.60 | 15.80 ± 2.33 | 25.45 ± 7.20 | 4.03 ± 0.95 | 28.98 ± 3.64 | 9.93 ± 2.46 | 26.84 ± 1.92% and 26.8% | remained almost at the same level | number of colonies [1]: one; IC50 ([2]; H460, 72 h): 16 ± 2 nM; IC90 ([2]; H460, 72 h): 46 ± 4 nM; IC50 [4]: 10 ± 1 nM; IC90 [4]: 44 ± 5 nM; cells in G1 ([5]; 120 h): 29.87 ± 2.31%; IC50 ([7]; Homo sapiens, MRC5, 72 h): ~20 nM; IC90 ([7]; Homo sapiens, 72 h): 2690 ± 640 nM
2 | ≤ 16 | ≤ 50 | ≤ 16 | ≤ 50 | O=c1c2ccccc2n2cnc3ccc(NCCCN4CCN(CCCNc5c6ccccc6nc6cccc([N+](=O)[O-])c56)CC4)c1c32 [Compound C-2041] | approximately 10% | 1.78 ± 0.42 | 31.30 ± 2.48 | 23.89 ± 5.34 | 34.76 ± 4.78 | 8.43 ± 3.14 | 2.52 ± 0.71 | 42.86 ± 1.87 | 21.24 ± 2.69 | 16.09 ± 2.94 | 17.43 ± 2.40 | 2.30 ± 0.60 | 14.84 ± 4.06 | 11.59 ± 1.16 | 36.47 ± 3.18% and 36.5% | remained almost at the same level | number of colonies [1]: 7 colonies; IC50 ([2]; H460, 72 h): 15 ± 2 nM; IC90 ([2]; H460, 72 h): 46 ± 5 nM; IC50 [4]: 8 ± 2 nM; IC90 [4]: 49 ± 5 nM; cells in G1 ([5]; 120 h): 35.08 ± 3.65%; IC50 ([7]; Homo sapiens, MRC5, 72 h): 23 ± 4 nM; IC90 ([7]; Homo sapiens, 72 h): 6160 ± 2060 nM
3 | 95 ± 38 | 399 ± 52 | 59 ± 8 | 455 ± 26 | Cc1ccc([N+](=O)[O-])c2c(NCCCN(C)CCCNc3ccc4ncn5c6ccc(O)cc6c(=O)c3c45)c3ccccc3nc12 [Compound C-2045] | approximately 10% | 1.78 ± 0.33 | 32.25 ± 3.01 | 28.15 ± 2.14 | 26.56 ± 3.44 | 9.84 ± 4.46 | 2.05 ± 0.60 | 39.94 ± 4.65 | 20.87 ± 5.18 | 18.53 ± 5.99 | 18.66 ± 3.61 | 2.28 ± 1.33 | 21.49 ± 5.96 | 9.03 ± 1.37 | 42.42 ± 8.29% and 42.4% | around 1.5 | return to proliferation (colony formation) [1]: completely blocked their return to proliferation; IC50 ([7]; Homo sapiens, MRC5, 72 h): ~300 nM; IC90 ([7]; Homo sapiens, 72 h): 6130 ± 2350 nM; IC50 ([7]; 72 h): 218 ± 37 nM
4 | 25 ± 6 | 184 ± 22 | 48 ± 14 | 195 ± 75 | Cc1ccc([N+](=O)[O-])c2c(NCCCN(C)CCCNc3ccc4ncn5c6ccccc6c(=O)c3c45)c3ccccc3nc12 [Compound C-2053] | least degraded | 2.76 ± 0.30 | 30.44 ± 2.27 | 27.37 ± 2.20 | 33.77 ± 3.66 | 6.28 ± 1.52 | 1.73 ± 0.52 | 36.08 ± 5.84 | 24.96 ± 3.05 | 14.09 ± 2.46 | 22.37 ± 2.06 | 2.39 ± 1.17 | 19.77 ± 6.06 | 10.78 ± 1.76 | 41.51 ± 5.77% and 41.5% | ~1.7 | return to proliferation (colony formation) [1]: completely blocked their return to proliferation; IC50 ([7]; Homo sapiens, MRC5, 72 h): 120 ± 26 nM; IC90 ([7]; Homo sapiens, 72 h): 3800 ± 1340 nM
